Test results reported in US4737504A, “5-fluoro-and 8-fluoro-trimetoquinol compounds and the processes for their preparation” (priority 1986, dated 1988).
Read-outs that look alike come from different tables or passages of the source.

How the values were obtained:
[1] = system: human platelets (ADP-induced aggregation); test: inhibition of the secondary phase of ADP-induced platelet aggregation, human platelet-rich plasma; format: cell-based; settings: ADP 1-3 μM
Description: (§1) The antiaggregatory and antisecretory activity on human platelets was determined by evaluating the in vitro aggregation and [^14 C]serotonin secretion in human platelet preparations. Blood was taken by venipuncture from normal human volunteers who were reported to be free of medication for at least 10 days before blood drawing. Venous blood samples were mixed with acid-citrate dextrose solution (9:1) and centrifuged at 120×g for 15 minutes at room temperature to obtain platelet-rich plasma, PRP, (Huzoor-Akbar et al., Biochem. Pharmacol., 30: 2013-2020, 1981). The PRP was transferred to polypropylene tubes and stored under an atmosphere of 8% CO2. The remaining blood was centrifuged at 1000×g for 10 minutes to obtain platelet-poor plasma. […] Platelet counts varied between 280,000 to 320,000 per cmm or were adjusted to 300,000 per cmm for the aggregation and secretion experiments. All studies were conducted within 2 hours after PRP recovery.
(§2) For aggregation studies, 0.5 ml of PRP was incubated with drug or vehicle (1-5 μl) for 1 minute at 37° C. before the initiation of aggregation with inducers. […] In all experiments, the minimum concentration of inducer (adenosine diphosphate ADP; epinephrine, E; 15S-hydroxy-11α,9α-epoxymethanoprosta-5Z,13E-dienoic acid, U46619; collagen; and arachidonic acid, AA) which caused maximal irreversible aggregation within each PRP preparation was used. Aggregation was monitored for 4 to 6 minutes after the addition of an inducer and data were presented as a percentage inhibition of either slope or maximal light transmittance changes in the presence of varying drug concentrations.

human platelets = test: human platelet aggregation and serotonin release, inducers taken together; format: cell-based; settings: for inhibition of aggregation and serotonin release: each inducer
Description: as §1, §2
(§3) Secretion data were calculated as the net increase of serotonin released into the supernatant by each inducer and expressed as a percentage of the total radioactivity in platelets Mayo et al., Biochem. Pharmacol., 30: 2237-2241, 1981. The effect of compounds on serotonin release was expressed as the percentage of inhibition of the maximum release by each inducer and plotted against the log molar concentrations of each agent.

[2] = phenol acidities (pKa) determined spectrophotometrically; format: physicochemical; settings: for pKa: phenol, tris(hydroxymethyl)aminomethane buffer, UV; for times more acidic than 1: relative to trimetoquinol 1
Description: Phenol acidities (pKa) were determined spectrophotometrically, as described by Albert et al., "The determination of Ionization Constants" 3rd Ed., Chapman and Hall, London and New York, 1984, by measuring the absorption as a function of pH in tris(hydroxymethyl)aminomethane buffer. Since the catechols tended to oxidize in basic media the buffers were degassed and flushed with argon prior to use.

[3] = system: human platelets (collagen-induced serotonin secretion); test: inhibition of collagen-induced serotonin secretion, human platelet-rich plasma; format: cell-based; settings: collagen 10-100 μg/ml
Description: as §1, §2, §3

[4] = system: human platelets (U46619-induced serotonin secretion); test: inhibition of U46619-induced serotonin secretion in presence of aspirin, human platelet-rich plasma; format: cell-based; settings: U46619 0.5-1.5 μM, aspirin 1 mM
Description: as §1, §2, §3

[5] = system: human platelets (epinephrine-induced serotonin secretion); test: inhibition of epinephrine-induced serotonin secretion, human platelet-rich plasma; format: cell-based; settings: epinephrine 1-10 μM
Description: as §1, §2, §3

[6] = system: human platelets (U46619-induced aggregation); test: inhibition of U46619-induced platelet aggregation in presence of aspirin, human platelet-rich plasma; format: cell-based; settings: U46619 0.5-1.5 μM, aspirin 1 mM
Description: as §1, §2

[7] = system: human platelets (arachidonic acid-induced serotonin secretion); test: inhibition of arachidonic acid-induced serotonin secretion, human platelet-rich plasma; format: cell-based; settings: arachidonic acid 100-300 μM
Description: as §1, §2, §3

[8] = system: human platelets (epinephrine-induced aggregation); test: inhibition of the secondary phase of epinephrine-induced platelet aggregation, human platelet-rich plasma; format: cell-based; settings: epinephrine 1-10 μM
Description: as §1, §2

[9] = system: human platelets (collagen-induced aggregation); test: inhibition of collagen-induced platelet aggregation, human platelet-rich plasma; format: cell-based; settings: collagen 10-100 μg/ml
Description: as §1, §2

[10] = system: human platelets (arachidonic acid-induced aggregation); test: inhibition of arachidonic acid-induced platelet aggregation, human platelet-rich plasma; format: cell-based; settings: arachidonic acid 100-300 μM
Description: as §1, §2

[11] = system: human platelets (ADP-induced serotonin secretion); test: inhibition of ADP-induced serotonin secretion, human platelet-rich plasma; format: cell-based; settings: ADP 1-3 μM
Description: as §1, §2, §3

[12] = read-out: IC50 platelet aggregation (secondary phase)
[13] = read-out: pIC50 platelet aggregation (secondary phase) (converted)
[14] = read-out: IC50 serotonin secretion
[15] = read-out: pIC50 serotonin secretion (converted)
[16] = read-out: IC50 platelet aggregation
[17] = read-out: pIC50 platelet aggregation (converted)

SMILES: COc1cc(CC2NCCc3cc(O)c(O)c(F)c32)cc(OC)c1OC (centres unmarked) [Compound 8-F-TMQ, 8-fluoro-trimetoquinol]
- IC50 [1, 12]: 6.5 µM
- IC50 [1, 13]: 6.46 µM
- inhibition of aggregation and serotonin release (human platelets): inhibitors of aggregation and serotonin release by each inducer
- potency relative to 2 as an inhibitor of human platelet activation (human platelets; relative to analog 2): about 2 fold
- pKa [2]: 7.86 ± 0.15
- times more acidic than 1 [2]: 8 times
- IC50 [3, 14]: 7.6 µM
- IC50 [3, 15]: 7.59 µM
- IC50 [4, 14]: 4.4 µM
- IC50 [4, 15]: 4.37 µM
- IC50 [5, 14]: 3.5 µM
- IC50 [5, 15]: 3.47 µM
- IC50 [6, 16]: 3.9 µM
- IC50 [6, 17]: 3.89 µM
- IC50 [7, 14]: 21.9 µM
- IC50 [7, 15]: 21.9 µM
- IC50 [8, 12]: 11 µM
- IC50 [8, 13]: 11 µM
- IC50 [9, 16]: 9.8 µM
- IC50 [9, 17]: 9.77 µM
- IC50 [10, 16]: 26.2 µM
- IC50 [10, 17]: 26.3 µM
- IC50 [11, 14]: 6.6 µM
- IC50 [11, 15]: 6.61 µM

SMILES: COc1cc(CC2NCCc3c2cc(O)c(O)c3F)cc(OC)c1OC (centres unmarked) [Compound 5-F-TMQ, 5-fluoro-trimetoquinol]
- IC50 [1, 12]: 15.1 µM
- IC50 [1, 13]: 15.1 µM
- inhibition of aggregation and serotonin release (human platelets): inhibitors of aggregation and serotonin release by each inducer
- pKa [2]: 8.11 ± 0.15
- times more acidic than 1 [2]: 4 times
- IC50 [3, 14]: 13.2 µM
- IC50 [3, 15]: 13.2 µM
- IC50 [4, 14]: 6.9 µM
- IC50 [4, 15]: 6.92 µM
- IC50 [5, 14]: 7.4 µM
- IC50 [5, 15]: 7.59 µM
- IC50 [6, 16]: 7.4 µM
- IC50 [6, 17]: 7.41 µM
- IC50 [7, 14]: 55 µM
- IC50 [7, 15]: 55 µM
- IC50 [8, 12]: 14.8 µM
- IC50 [8, 13]: 14.8 µM
- IC50 [9, 16]: 51.3 µM
- IC50 [9, 17]: 51.3 µM
- IC50 [10, 16]: 77.5 µM
- IC50 [10, 17]: 77.6 µM
- IC50 [11, 14]: 17 µM
- IC50 [11, 15]: 17 µM
